Columns and labels:
[1] = biological target: T1, C-X-C chemokine receptor type 1 (Homo sapiens, UniProt P25024); also: in other assays of this panel Not Active means under 50% inhibition at 10 µM
T1 sequence (P25024 whole entry): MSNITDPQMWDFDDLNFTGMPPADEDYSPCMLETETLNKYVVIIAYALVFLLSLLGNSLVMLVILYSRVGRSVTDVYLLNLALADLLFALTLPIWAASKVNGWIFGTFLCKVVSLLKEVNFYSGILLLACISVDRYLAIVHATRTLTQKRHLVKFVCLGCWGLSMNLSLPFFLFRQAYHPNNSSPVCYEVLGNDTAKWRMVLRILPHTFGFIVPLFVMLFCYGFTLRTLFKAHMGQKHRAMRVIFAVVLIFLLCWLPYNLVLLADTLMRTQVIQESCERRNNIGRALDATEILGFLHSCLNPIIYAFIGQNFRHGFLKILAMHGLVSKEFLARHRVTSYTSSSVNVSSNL

[2] = biological target: T2, 3-hydroxy-3-methylglutaryl-coenzyme A reductase (Homo sapiens, UniProt P04035); parameters: species or system Escherichia coli;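 also: enzyme inhibition assay of HMG-CoA reductase using radiolabeled [14C]HMG-CoA as substrate; in other assays of this panel Not Active means under 50% inhibition at 10 µM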
T2 sequence (P04035 whole entry): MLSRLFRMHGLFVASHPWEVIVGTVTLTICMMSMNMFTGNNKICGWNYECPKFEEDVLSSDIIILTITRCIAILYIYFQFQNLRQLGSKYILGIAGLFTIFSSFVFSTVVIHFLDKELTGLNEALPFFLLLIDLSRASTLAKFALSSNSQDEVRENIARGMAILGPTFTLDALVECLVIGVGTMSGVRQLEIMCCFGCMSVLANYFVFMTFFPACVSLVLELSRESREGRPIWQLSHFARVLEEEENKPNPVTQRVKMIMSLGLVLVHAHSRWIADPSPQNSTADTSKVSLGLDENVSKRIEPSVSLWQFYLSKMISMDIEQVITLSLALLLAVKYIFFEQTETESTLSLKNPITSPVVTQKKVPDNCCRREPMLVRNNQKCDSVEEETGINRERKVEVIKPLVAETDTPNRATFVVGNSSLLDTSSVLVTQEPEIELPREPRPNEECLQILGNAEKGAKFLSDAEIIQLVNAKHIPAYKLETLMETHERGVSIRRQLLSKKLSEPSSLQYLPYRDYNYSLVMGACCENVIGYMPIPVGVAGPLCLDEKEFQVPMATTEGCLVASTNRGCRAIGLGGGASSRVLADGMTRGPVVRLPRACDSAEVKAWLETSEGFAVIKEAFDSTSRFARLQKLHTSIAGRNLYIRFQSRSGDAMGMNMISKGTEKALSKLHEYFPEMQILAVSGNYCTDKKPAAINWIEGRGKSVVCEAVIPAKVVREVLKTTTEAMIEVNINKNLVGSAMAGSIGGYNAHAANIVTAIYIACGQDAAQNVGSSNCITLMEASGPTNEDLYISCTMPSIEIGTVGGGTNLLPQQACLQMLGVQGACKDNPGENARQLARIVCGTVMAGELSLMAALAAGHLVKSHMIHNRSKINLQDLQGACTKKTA

[3] = biological target: T3, Cysteinyl leukotriene receptor 1 (Homo sapiens, UniProt Q9Y271); type: cell membranes, Membrane; settings: cho-k1; also: in other assays of this panel Not Active means under 50% inhibition at 10 µM
T3 sequence (Q9Y271 whole entry): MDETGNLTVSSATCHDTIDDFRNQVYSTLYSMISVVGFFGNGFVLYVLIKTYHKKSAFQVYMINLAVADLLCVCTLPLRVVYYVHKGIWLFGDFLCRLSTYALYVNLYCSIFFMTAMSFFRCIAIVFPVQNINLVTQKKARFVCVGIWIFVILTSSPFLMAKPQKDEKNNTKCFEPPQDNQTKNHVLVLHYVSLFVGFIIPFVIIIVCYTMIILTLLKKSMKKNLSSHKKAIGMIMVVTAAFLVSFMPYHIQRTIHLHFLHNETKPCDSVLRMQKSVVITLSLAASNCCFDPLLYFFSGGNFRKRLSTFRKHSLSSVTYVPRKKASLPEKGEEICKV

[4] = biological target: T4, Alpha-1B adrenergic receptor (Rattus norvegicus, UniProt P15823); assay: DRUGMATRIX: Alpha-1B adrenergic receptor radioligand binding (ligand: prazosin); type: cell membranes, Wistar, Liver, Membrane; settings: Not Active = under 50% inhibition at 10 µM
T4 sequence (P15823 whole entry): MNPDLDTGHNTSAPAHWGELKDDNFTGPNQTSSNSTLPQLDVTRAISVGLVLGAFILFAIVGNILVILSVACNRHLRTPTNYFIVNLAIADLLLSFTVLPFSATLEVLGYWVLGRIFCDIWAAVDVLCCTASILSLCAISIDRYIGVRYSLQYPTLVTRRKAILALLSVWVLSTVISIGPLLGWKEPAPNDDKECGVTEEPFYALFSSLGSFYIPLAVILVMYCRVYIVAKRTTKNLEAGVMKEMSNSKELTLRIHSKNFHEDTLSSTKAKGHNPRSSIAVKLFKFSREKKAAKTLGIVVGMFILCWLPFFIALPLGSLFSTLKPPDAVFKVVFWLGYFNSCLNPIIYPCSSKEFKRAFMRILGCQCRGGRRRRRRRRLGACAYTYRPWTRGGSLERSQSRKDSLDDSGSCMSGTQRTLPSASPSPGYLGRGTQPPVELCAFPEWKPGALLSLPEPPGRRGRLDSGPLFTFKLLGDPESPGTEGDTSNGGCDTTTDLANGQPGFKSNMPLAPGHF

[5] = biological target: T5, Vasoactive intestinal polypeptide receptor 1 (Homo sapiens, UniProt P32241); type: cell membranes, Membrane; settings: ht-29; also: in other assays of this panel Not Active means under 50% inhibition at 10 µM
T5 sequence (P32241 whole entry): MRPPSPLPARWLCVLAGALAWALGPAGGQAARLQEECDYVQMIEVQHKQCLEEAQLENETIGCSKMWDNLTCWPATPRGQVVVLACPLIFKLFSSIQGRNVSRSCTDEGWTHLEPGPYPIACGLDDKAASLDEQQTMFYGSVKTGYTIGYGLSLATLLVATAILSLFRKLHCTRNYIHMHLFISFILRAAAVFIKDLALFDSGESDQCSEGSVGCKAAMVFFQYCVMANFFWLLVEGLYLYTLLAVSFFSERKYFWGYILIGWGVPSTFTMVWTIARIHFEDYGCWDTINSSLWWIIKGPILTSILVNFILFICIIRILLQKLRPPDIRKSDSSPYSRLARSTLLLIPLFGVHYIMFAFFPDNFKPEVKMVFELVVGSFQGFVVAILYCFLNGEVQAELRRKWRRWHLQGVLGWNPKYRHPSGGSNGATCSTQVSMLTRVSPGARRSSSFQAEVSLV

CC(C)(C)NC[C@H](O)COc1nsnc1N1CCOCC1 [TIMOLOL]
Not Active: IC50 [1] | IC50 [2] | IC50 [3] | IC50 [4] | IC50 [5]

CCS(=O)(=O)CCn1c([N+](=O)[O-])cnc1C [TINIDAZOLE]
Not Active: IC50 [1] | IC50 [2] | IC50 [3] | IC50 [4] | IC50 [5]

C[C@@H]1C[C@H]2[C@@H]3CCC4=CC(=O)C=C[C@]4(C)C3=CC[C@]2(C)[C@H]1C(=O)CN1CCN(c2cc(N3CCCC3)nc(N3CCCC3)n2)CC1 [TIRILAZAD]
Not Active: IC50 [1] | IC50 [2] | IC50 [3] | IC50 [4] | IC50 [5]

NC[C@H]1O[C@H](O[C@H]2[C@H](O)[C@@H](O[C@H]3O[C@H](CO)[C@@H](O)[C@H](N)[C@H]3O)[C@H](N)C[C@@H]2N)[C@H](N)C[C@@H]1O [TOBRAMYCIN]
Not Active: IC50 [1] | IC50 [2] | IC50 [3] | IC50 [4] | IC50 [5]

O=C(O)C(Cl)(Cl)Cl [TRICHLOROACETIC ACID]
Not Active: IC50 [1] | IC50 [2] | IC50 [3] | IC50 [4] | IC50 [5]

COc1ccc(CN2CCNCC2)c(OC)c1OC [TRIMETAZIDINE]
Not Active: IC50 [1] | IC50 [2] | IC50 [3] | IC50 [4] | IC50 [5]

CC(=O)O[C@H]1C[C@@H]2CC[C@@H]3[C@H](CC[C@@]4(C)[C@H]3C[C@H]([N+]3(C)CCCCC3)[C@@H]4OC(C)=O)[C@@]2(C)C[C@@H]1N1CCCCC1.[Br-] [VECURONIUM BROMIDE]
Not Active: IC50 [1] | IC50 [2] | IC50 [3] | IC50 [4] | IC50 [5]

Cc1cn([C@H]2C[C@H](N=[N+]=[N-])[C@@H](CO)O2)c(=O)[nH]c1=O [ZIDOVUDINE]
Not Active: IC50 [1] | IC50 [2] | IC50 [3] | IC50 [4] | IC50 [5]

STANNOUS FLUORIDE
Not Active: IC50 [1] | Ki [1] | IC50 [2] | Ki [2] | IC50 [3] | Ki [3] | IC50 [4] | Ki [4] | IC50 [5] | Ki [5]

THIMEROSAL
Not Active: IC50 [1] | Ki [1] | IC50 [2] | Ki [2] | IC50 [3] | Ki [3] | IC50 [4] | Ki [4] | IC50 [5] | Ki [5]

— ChEMBL document CHEMBL1909046, “DrugMatrix in vitro pharmacology data”
